From paper PMC12218921, “An adaptive peptide-binding site in ubiquitin receptor hRpn13 revealed by structural studies” (Nature Communications, 2025)

Experiments:
[1] = target: T1, hRpn13_ΔMTT (Homo sapiens, UniProt Q16186); test: 1H-15N HSQC NMR titration / chemical shift perturbation (CSP), 0.1 mM 15N-labeled hRpn13_ΔMTT with unlabeled peptide; assay type: binding; details: 20-fold molar excess peptide
T1 construct: recombinant plasmid of hRpn13 Pru (1–150) cloned into the pRSET vector; GST (N, cleaved yes); residual Gly-Ser (^cG-^dS) left after cleavage; made in house; host or cells: Escherichia coli BL21 (DE3); pGEX-4T-1 plasmid synthesized by GenScript (Addgene 237412)
T1 sequence (Q16186 4-150, stated change not applied): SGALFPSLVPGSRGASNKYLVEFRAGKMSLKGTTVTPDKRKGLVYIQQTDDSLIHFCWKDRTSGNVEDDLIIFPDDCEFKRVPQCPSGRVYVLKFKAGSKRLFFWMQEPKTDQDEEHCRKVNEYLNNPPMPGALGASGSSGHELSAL
Protocol: The similar spectral effects by adding ENT or ENT_M1S is readily apparent by quantifying and plotting the shifting across the Pru amino acid sequence (Supplementary Fig. 10b, c).
(§1) All ^1H-^15N HSQC experiments were acquired on samples dissolved in NMR buffer (20 mM sodium phosphate, pH 6.5, 50 mM NaCl, 1 mM TCEP, 10% D2O) unless specified, in which case 2 mM DTT replaced TCEP. The samples were purified in DTT-containing buffer and then exchanged into NMR buffer by using Zeba Protein Desalting columns (Thermo Fisher Scientific). The pH was measured and adjusted to 6.5. All NMR experiments were performed at 25 °C on a Bruker Advance 600 MHz spectrometer equipped with a cryogenically cooled probe. The data were processed by NMRpipe[46] (version 11.5) and spectra visualized and analyzed with NMR-FAM-SPARKY[47] (version 3.190) by using previous chemical shift assignments[12],[23] and NMRbox[48]. The amide nitrogen and hydrogen chemical shift perturbations (CSP) were mapped for each amino acid according to Eq. 1.1 CSP=0.2ΔδN2+ΔδH2
ΔδH, change in amide proton value (in parts per million); ΔδN, change in amide nitrogen value (in parts per million).
Supplementary Figure 9: 2D NMR experiments indicate ENT binding to hRpn13 Pru. a) ^1H-^15N HSQC spectrum of 0.1 mM ^15N-labeled hRpn13 (1-150, black) or hRpn13_ΔMTT (green). Select residues are labeled with amino acids in the Pru helix, proteasome binding region, and termini in blue, purple, and orange, respectively. Arrows indicate direction of shifting. b, c) ^1H-^15N HSQC spectra of 0.1 mM of ^15N-labeled hRpn13_ΔMTT alone (black) or with ENT present at equimolar (red), 2-fold (orange), 5-fold (yellow), 10-fold (green), 15-fold (blue), or 20-fold (purple) molar excess. […] All spectra were acquired at 600 MHz and 25°C in 20 mM sodium phosphate, pH 6.5, 100 mM NaCl, 1 mM TCEP, 10% D2O. ppm, part per million.

[2] = target: T1, hRpn13_ΔMTT; test: 1H-15N HSQC NMR, K48-diUb constructs with hRpn13_ΔMTT; assay type: binding; details: for ubiquitin contact surface binding (HSQC): varying K48-diUb concentrations
Protocol: To test further whether peptide binding can influence hRpn13 Pru interaction with ubiquitin, we generated K48-linked diubiquitin in which the distal moiety (linked via G76) is extended by a 6-residue linker sequence of GSGGSG followed by either the ENT (K48-diUb^ENT) or EDGEGEE (K48-diUb^EDGEGEE) sequence. Varying concentrations of K48-diUb^ENT, K48-diUb^EDGEGEE, or K48-diUb^D77 were added to 100 μM ^15N-labeled hRpn13_ΔMTT and effects on hRpn13 monitored by recording ^1H-^15N HSQC spectra.
K48-diUb samples were produced by using a similar method as previously described. Briefly, Ub-D77 (proximal), Ub-ENT (proximal), Ub-EDGEGEE (proximal) and Ub-K48R (distal) were added at a final concentration of 0.8 mM to a reaction buffer (50 mM Tris pH 8.0, 5 mM MgCl2, 10 mM creatine phosphate, 0.6 U/mL inorg. PPase, 0.6 U/mL creatine kinase, 2 mM ATP) preincubated with 20 μM E2-25K. 0.1 μM E1 (R&D Systems) was added to this reaction system to initiate diUb synthesis, and it was left for 18 h at 37 °C. The reaction was quenched by dilution with 4 volumes of 50 mM sodium acetate (pH 4.5) and passed over a Mono S 5/50 GL column (GE Healthcare). Further purification was achieved by SEC on a HiLoad 16/600 Superdex 75 prep grade column (GE Healthcare) in buffer C.
as §1
Supplementary Figure 13: NMR experiments of hRpn13 Pru binding to K48-diUb^EDGEGEE, K48-diUb^ENT or K48-diUb^D77. a) ^1H-^15N HSQC spectrum of 0.1 mM ^15N-labeled hRpn13_ΔMTT alone (black) or with equimolar K48-diUb^EDGEGEE (blue), K48-diUb^ENT (red) or K48-diUb^D77 (green). Select residues are labeled. The spectra were acquired on a 600 MHz spectrometer equipped with a cryogenically cooled probe and at 25°C samples with samples dissolved in 20 mM sodium phosphate, pH 6.5, 100 mM NaCl, 1 mM TCEP, 10% D2O.

## GPGSSTT [ENT_M1S, ENT M1 replaced with serine]
[1]
  CSP A6: 0.001673
  CSP A28: 0.004472
  CSP A100: 0.001095
  CSP A136: 0.001
  CSP A139: 0.001342
  CSP A149: 0.001342
  CSP C60: 0.004494
  CSP C80: 0.0004472
  CSP C88: 0.005727
  CSP C121: 0.01167
  CSP D41: 0.0008944
  CSP D53: 0.002049
  CSP D54: 0.003347
  CSP D63: 0.004919
  CSP D71: 0.004147
  CSP D72: 0.004583
  CSP D78: 0.00502
  CSP D79: 0.004472
  CSP D115: 0.005385
  CSP D117: 0.02256
  CSP E25: 0.004472
  CSP E70: 0.002683
  CSP E81: 0.003715
  CSP E111: 0.01001
  CSP E118: 0.03156
  CSP E119: 0.0177
  CSP E146: 0.005177
  CSP F8: 0.0004472
  CSP F26: 0.01613
  CSP F59: 0.004583
  CSP F76: 0.008012
  CSP F82: 0.002683
  CSP F98: 0.005459
  CSP F106: 0.003715
  CSP F107: 0.002049
  CSP G5: 0
  CSP G17: 0.002236
  CSP G29: 0.0008944
  CSP G45: 0.003715
  CSP G67: 0.005899
  CSP G91: 0.001673
  CSP G101: 0.001789
  CSP G135: 0.002049
  CSP G138: 0.002049
  CSP G141: 0.001789
  CSP G144: 0.0008944
  CSP H58: 0.00743
  CSP H120: 0.04026
  CSP H145: 0.04954
  CSP I49: 0.003286
  CSP I57: 0.003286
  CSP I75: 0
  CSP K21: 0.001095
  CSP K30: 0.007668
  CSP K34: 0.002049
  CSP K42: 0.002191
  CSP K62: 0.001789
  CSP K83: 0.00634
  CSP K97: 0.001
  CSP K99: 0.002049
  CSP K103: 0.001673
  CSP K113: 0.004472
  CSP K123: 0.00743
  CSP L7: 0.001
  CSP L11: 0.0008944
  CSP L23: 0.001095
  CSP L33: 0.002408
  CSP L46: 0.002049
  CSP L56: 0.004099
  CSP L73: 0.002049
  CSP L96: 0.0004472
  CSP L105: 0.001095
  CSP L128: 0.003131
  CSP L137: 0.001673
  CSP L147: 0.004494
  CSP L150: 0.001673
  CSP M31: 0
  CSP M109: 0.003286
  CSP M133: 0.002
  CSP N20: 0
  CSP N68: 0.001789
  CSP N125: 0.003347
  CSP N129: 0.003
  CSP N130: 0.002683
  CSP Q50: 0.001095
  CSP Q51: 0.001
  CSP Q87: 0.008295
  CSP R16: 0
  CSP R27: 0.008112
  CSP R43: 0.0008944
  CSP R64: 0.003
  CSP R84: 0
  CSP R92 backbone: 0.002449
  CSP R92 sidechain: 0.01312
  CSP R104: 0.004099
  CSP R122: 0.006768
  CSP S4: 0.003715
  CSP S10: 0.001
  CSP S15: 0.002236
  CSP S19: 0.002049
  CSP S32: 0.001095
  CSP S55: 0.001342
  CSP S66: 0.001
  CSP S102: 0.001342
  CSP S140: 0.001095
  CSP S142: 0.001342
  CSP S143: 0.002049
  CSP S148: 0.0004472
  CSP T36: 0.001342
  CSP T37: 0.002191
  CSP T39: 0.002683
  CSP T52: 0.001095
  CSP T65: 0.001342
  CSP T114: 0.01524
  CSP V12: 0.002049
  CSP V24: 0
  CSP V47: 0.002683
  CSP V69: 0.003715
  CSP V93: 0.006542
  CSP V95: 0.003131
  CSP V124: 0.007759
  CSP W61: 0.009165
  CSP W108: 0.004025
  CSP Y22: 0.001095
  CSP Y48: 0.002864
  CSP Y94: 0.002449
  CSP Y127: 0.004382

## K48-diUb^D77: K48-linked diubiquitin from Ub-D77 (proximal) and Ub-K48R (distal) [reference compound]
[2]; 100 μM 15N-hRpn13_ΔMTT
  ubiquitin contact surface binding (HSQC): binding to ubiquitin was observed

## K48-diUb^EDGEGEE: K48-linked diubiquitin extended by linker GSGGSG followed by EDGEGEE
[2]; 100 μM 15N-hRpn13_ΔMTT
  bound state hRpn13 F76 signal: A bound state hRpn13 signal was only observed for K48-diUb^EDGEGEE
  strength of complex with hRpn13 (HSQC): stronger complex with hRpn13 compared to K48-diUb^ENT or K48-diUb^D77
  ubiquitin contact surface binding (HSQC): binding to ubiquitin was observed
[2]; sub-stoichiometric K48-diUb concentrations
  hRpn13 D78, A100, and G101 signal shifting compared to K48-diUb^D77: more pronounced shifting at sub-stoichiometric concentrations
